Our source for the TGI and GI50 values is PubChem BioAssay (NCI).

Holding throughout (test): NCI tumour cell line growth inhibition, 48 h
For assay [1], the system named is LOX IMVI melanoma.
For assay [2], the system named is TK-10 renal.
The subject of assay [3] is OVCAR-4 ovarian.
In assay [4] the test system is IGROV1 ovarian.
For assay [5], the system named is SN12C renal.
Assay [6] concerns HOP-92 NSCLC.
For assay [7], the system named is 786-0 renal.
Assay [8] relates to M19-MEL melanoma.
In assay [9] the test system is LXFL 529 NSCLC.
Assay [10] deals with NCI-H522 lung.

Structures are written as SMILES.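 Each compound was tested at five concentrations against cells in 96-well plates for 48 hours. The concentration for 50% growth inhibition is given as GI50. The concentration for full growth arrest is given as TGI.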

In the case of `O=S(=O)(N/N=C/c1ccc(Cl)c(Cl)c1)c1ccccc1`, the TGI in assay [1] is over 100 µM; in [2] it was over 100 µM; in [3], over 100 µM; in assay [4], over 100 µM; in assay [5], over 100 µM; in [6] it was 48.6 µM. Further, the TGI in assay [7], in [8] and in assay [9] was over 100 µM in each case.
In the case of `CC/C(=C(/c1ccc(OCCN(C)C)cc1)c1ccc(OC(=O)CCC(=O)c2c(C)[nH]c(/C=C3\N=C(c4ccc[nH]4)C=C3OC)c2C)cc1)c1ccccc1`, the GI50 in assay [1] is 0.456 µM; in assay [2], 4.87 µM; in [10], 1.88 µM; in assay [3] it was 1.49 µM; in [4], 3.65 µM; in [5], 3.09 µM. For the same compound, the GI50 is 0.749 µM in assay [6] and 2.19 µM in assay [7]. For the same compound, the TGI in assay [1] came to 1.69 µM; in [2], 15.7 µM; in [10] it was 5.38 µM; in [3] it was 14.8 µM; in assay [4], 15.4 µM; in [5] it was 18.9 µM. For the same compound, the TGI turned out to be 4.13 µM in [6] and 5.73 µM in [7].
For the compound `O=S(=O)(Cc1ccc(Cl)cc1Cl)c1ccc(Cl)cc1`, the GI50 was 0.587 µM in assay [1]; 1.01 µM in assay [2]; 0.282 µM in assay [10]; 5.73 µM in assay [3]; 0.445 µM in assay [4]; 1.5 µM in [5]. For the same compound, the values for the GI50 in assay [6] and in [7] were 20.8 µM and 1.84 µM, respectively. The TGI in assay [1] was over 100 µM; in assay [2], over 53.9 µM; in assay [10], 2.27 µM; in assay [3], over 100 µM; in assay [4] it was over 21.9 µM; in [5] it was over 100 µM. For the same compound, the TGI is over 92.5 µM in assay [6] and over 100 µM in assay [7].
`O=c1c2c3c(sc2n2c(-c4cc(-c5ccccc5)no4)nnc2n1Cc1ccccc1)CCCC3`: the GI50 in [1] is 7.76 µM; in [2], 21.5 µM; in [10], 3.4 µM; in [3], 19.2 µM; in assay [4] it was 8.22 µM; in assay [5], 22.7 µM. Besides, the GI50 was 6.66 µM in assay [6] and 20.5 µM in [7]. Also, the TGI in assay [1] is over 62.4 µM; in assay [2], over 82.8 µM; in assay [10] it was 28.1 µM; in assay [3], over 100 µM; in assay [4], 87.6 µM; in [5], over 100 µM. For the same compound, the TGI in [6] is over 100 µM; in assay [7], 98.9 µM.
Take `O=c1ccc(N=Nc2ccc([N+](=O)[O-])cc2)ccc1O`: the GI50 is 3.36 µM in assay [1]; 20 µM in assay [2]; 3.42 µM in assay [10]; 5.17 µM in assay [3]; 6.33 µM in assay [4]; 3.61 µM in assay [5]. In addition, the GI50 in [6] was 4.9 µM; in assay [7] it was 5.99 µM. Besides, the TGI in [1] was over 100 µM; in [2] it was over 100 µM; in assay [10] it was 28.3 µM; in assay [3], over 100 µM; in assay [4], over 100 µM; in assay [5], over 100 µM. The TGI in assay [6] and in assay [7] was over 100 µM throughout.
Take `CC1=C(/C=C/C(=O)O)C(C)(C)CCC1`: the TGI in assay [1], in assay [2], in [10], in assay [3], in [4] and in assay [5] was over 100 µM throughout. For the same compound, the TGI in assay [6] and in assay [7] was over 100 µM each time.
Consider `CCCCOc1ccc(NC(=O)n2nc(N)c3ccccc32)cc1`, for which the GI50 was 11.6 µM in assay [1]; 26.9 µM in assay [2]; 23.9 µM in assay [10]; 26.6 µM in assay [3]; 33 µM in assay [4]; 23.4 µM in [5]. Also, the figures for the GI50 in assay [6] and in assay [7] were 17.7 µM and 19.7 µM, respectively. Further, the TGI in assay [1] is 24.2 µM; in [2] it was over 73.5 µM; in assay [10] it was over 89.1 µM; in assay [3], over 100 µM; in assay [4], over 100 µM; in assay [5], 85.9 µM. Also, the results for the TGI in [6] and in assay [7] were 54.1 µM and 48.4 µM, respectively.
With `Nc1ncnc2c1ncn2Cc1ccc(C23CC4CC(CC(C4)C2)C3)c(OCc2cc(F)c(F)cc2F)c1`, the GI50 in assay [1] is 5.36 µM; in assay [2] it was 4.37 µM; in [10], 7.86 µM; in assay [3], 90.8 µM; in [4], 7.54 µM; in assay [5], 11.7 µM. The GI50 in [6] was 4.63 µM; in assay [7], 17.5 µM. Further, the TGI in assay [1] was over 100 µM; in assay [2] it was over 100 µM; in assay [10], over 100 µM; in [3], over 100 µM; in assay [4], over 100 µM; in [5] it was 67.5 µM. Further, the values for the TGI in [6] and in assay [7] were 32.7 µM and over 100 µM, respectively.
For the compound `Cc1cc(NCCCNc2ccnc3cc(Cl)ccc23)nc(N2CCN(C)CC2)n1`, the GI50 is 2 µM in assay [1]; 6.51 µM in assay [2]; 2.43 µM in [10]; 4.03 µM in [3]; 8.14 µM in [4]; 4.76 µM in [5]. In addition, the GI50 in [6] was 15.2 µM; in assay [7], 14.7 µM. In addition, the TGI in assay [1] was determined as 5.2 µM; in [2], 29.9 µM; in assay [10], 11.1 µM; in [3], 44.5 µM; in assay [4], 39.9 µM; in assay [5], 33.9 µM. The TGI in assay [6] came out at 37.4 µM; in [7], 38.3 µM.
Turning to `O=C1c2cccnc2C(=O)C2C3C=CC(C3)C12` (configuration not stated), the TGI in assay [1] was found to be 15.7 µM; in assay [2], 31.9 µM; in [10], 13.8 µM; in assay [3], 21.7 µM; in assay [4], 24 µM; in assay [5] it was 29.2 µM. Besides, the TGI amounted to 27 µM in assay [6] and 24.2 µM in [7].
